Among the test systems are HOP-62 NSCLC; SNB-19 CNS; LOX IMVI melanoma; OVCAR-5 ovarian; OVCAR-3 ovarian; TK-10 renal; RPMI-8226 leukemia; NCI-H226 lung; SNB-75 CNS; NCI-H460 lung.
What all share (experiment): NCI anticancer screen, dose series, 48 h

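Five concentrations, 48 hours, 96-well plates. GI50 is the concentration that inhibits growth by half. TGI: total growth inhibition.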

On to `CCOC(=O)C(=O)Nc1cc(Cl)c(Cl)cc1Cl`, for which the TGI in the test on HOP-62 NSCLC, in the test with SNB-19 CNS, with LOX IMVI melanoma, with OVCAR-5 ovarian, in the test on OVCAR-3 ovarian and with TK-10 renal was above 100 µM each time. In addition, the TGI with RPMI-8226 leukemia, in the test on NCI-H226 lung, in the test on SNB-75 CNS and with NCI-H460 lung was above 100 µM throughout.
Regarding `O=C(NCCc1ccccc1)Nc1ccc2cc3ccc(NC(=O)NCCc4ccccc4)cc3nc2c1`, the GI50 is 1.55 µM in the test with HOP-62 NSCLC; 1.4 µM in the test on SNB-19 CNS; 0.202 µM in the test with LOX IMVI melanoma; 2.03 µM in the test on OVCAR-5 ovarian; 1.04 µM in the test with OVCAR-3 ovarian; 4.98 µM in the test with TK-10 renal. Moreover, the GI50 in the test with RPMI-8226 leukemia is 2.24 µM; in the test with NCI-H226 lung it was 1.95 µM; in the test with SNB-75 CNS, 1.36 µM; in the test on NCI-H460 lung it was 1.27 µM. Also, the TGI in the test with HOP-62 NSCLC came out at 3.75 µM; with SNB-19 CNS it was 2.97 µM; in the test on LOX IMVI melanoma it was 0.445 µM; in the test on OVCAR-5 ovarian, 5.7 µM; in the test with OVCAR-3 ovarian it was 2.34 µM; in the test with TK-10 renal it was 24.8 µM. In addition, the TGI with RPMI-8226 leukemia worked out at 6.72 µM; in the test with NCI-H226 lung, 5.85 µM; in the test on SNB-75 CNS, 3.21 µM; in the test with NCI-H460 lung, 3.57 µM.
For `Cc1cccc(C)c1NC(=O)CCc1nnc2s/c(=C\c3ccc(N(C)C)cc3)c(=O)n12`, the TGI with HOP-62 NSCLC, in the test on SNB-19 CNS, in the test with LOX IMVI melanoma, in the test with OVCAR-5 ovarian, in the test on OVCAR-3 ovarian and with TK-10 renal was above 100 µM throughout. Also, the TGI in the test on RPMI-8226 leukemia, with NCI-H226 lung, in the test with SNB-75 CNS and in the test with NCI-H460 lung was above 100 µM throughout.
Consider `N#Cc1c(-c2ccccc2)cc(-c2ccc(N)cc2)[nH]c1=O`, for which the TGI with HOP-62 NSCLC, in the test on SNB-19 CNS, in the test with LOX IMVI melanoma, with OVCAR-5 ovarian, in the test on OVCAR-3 ovarian and with TK-10 renal was above 100 µM in each case. For the same molecule, the TGI with RPMI-8226 leukemia, in the test with NCI-H226 lung, in the test on SNB-75 CNS and in the test with NCI-H460 lung was above 100 µM in each case.
`C[N+](C)(C)CC1CCC(C[N+](C)(C)C)C1=O` (stereo not given): the TGI was 36.1 µM in the test on HOP-62 NSCLC; 33.5 µM in the test with SNB-19 CNS; 10.3 µM in the test on LOX IMVI melanoma; 14.4 µM in the test with OVCAR-5 ovarian; 5.32 µM with OVCAR-3 ovarian; 6.39 µM with TK-10 renal. In addition, the TGI was 27.2 µM in the test on RPMI-8226 leukemia, 23.3 µM with NCI-H226 lung, 3.51 µM in the test with SNB-75 CNS and 62.8 µM with NCI-H460 lung.
For the molecule `O=[P+](O)c1ccccn1`, the TGI with HOP-62 NSCLC, with SNB-19 CNS, with LOX IMVI melanoma, in the test with OVCAR-5 ovarian, in the test on OVCAR-3 ovarian and in the test with TK-10 renal was above 100 µM throughout. Besides, the TGI with RPMI-8226 leukemia, in the test on NCI-H226 lung, in the test with SNB-75 CNS and in the test on NCI-H460 lung was above 100 µM each time.
As to `N#Cc1ccc(-c2c(-c3ncn[nH]3)sc(N3CCOCC3)c2C#N)c(F)c1`, the GI50 is 1.05 µM in the test with HOP-62 NSCLC; 1.96 µM in the test on SNB-19 CNS; 0.546 µM in the test on LOX IMVI melanoma; 0.455 µM with OVCAR-5 ovarian; 0.502 µM with OVCAR-3 ovarian; 0.316 µM with TK-10 renal. In addition, the GI50 with RPMI-8226 leukemia was 4.5 µM; in the test with NCI-H226 lung, 1.83 µM; in the test with SNB-75 CNS, 0.0736 µM; in the test with NCI-H460 lung, 0.419 µM. Besides, the TGI with HOP-62 NSCLC was determined as 21.9 µM; in the test with SNB-19 CNS, 38.9 µM; with LOX IMVI melanoma, 13.1 µM; in the test with OVCAR-5 ovarian it was 10.5 µM; with OVCAR-3 ovarian, 7.89 µM; in the test on TK-10 renal, 7.11 µM. Moreover, the TGI was found to be 48.6 µM in the test with RPMI-8226 leukemia, 86.3 µM with NCI-H226 lung, 0.771 µM in the test with SNB-75 CNS and 23.6 µM with NCI-H460 lung.
Take `O=C(Cc1nc2sc3c(c2c(=O)[nH]1)CCCC3)Nc1ccccc1`: the TGI in the test on HOP-62 NSCLC, in the test with SNB-19 CNS, in the test with LOX IMVI melanoma, in the test with OVCAR-5 ovarian, in the test with OVCAR-3 ovarian and with TK-10 renal was above 100 µM in each case. The TGI in the test on RPMI-8226 leukemia is above 100 µM; in the test with NCI-H226 lung it was above 100 µM; in the test with SNB-75 CNS it was 53.6 µM; in the test with NCI-H460 lung, above 100 µM.
For the molecule `Nc1ccccc1C#C/C=C\C#CC#C/C=C\C#Cc1ccccc1N`, the GI50 was 10.5 µM with HOP-62 NSCLC; 16.2 µM with SNB-19 CNS; 1.75 µM in the test with LOX IMVI melanoma; 14.9 µM in the test on OVCAR-5 ovarian; 2.78 µM in the test with OVCAR-3 ovarian; 15.3 µM in the test on TK-10 renal. Further, the GI50 was 0.515 µM in the test on RPMI-8226 leukemia, 3.56 µM in the test on NCI-H226 lung, 3.27 µM with SNB-75 CNS and 8.32 µM with NCI-H460 lung. In addition, the TGI was 28.1 µM with HOP-62 NSCLC; 64.8 µM in the test on SNB-19 CNS; 11.6 µM in the test with LOX IMVI melanoma; 42.1 µM with OVCAR-5 ovarian; 14 µM in the test on OVCAR-3 ovarian; above 100 µM in the test on TK-10 renal. The TGI was 5.82 µM in the test on RPMI-8226 leukemia, 27.2 µM in the test with NCI-H226 lung, 22 µM in the test on SNB-75 CNS and 25.6 µM in the test on NCI-H460 lung.
Regarding `CC(C)(C)OP(=O)(OC(C)(C)C)C(O)c1ccc(/C=C(\C#N)C(N)=O)cc1` (stereo not given), the TGI in the test with HOP-62 NSCLC, in the test with SNB-19 CNS, in the test on LOX IMVI melanoma, in the test on OVCAR-5 ovarian, with OVCAR-3 ovarian and in the test on TK-10 renal was above 100 µM throughout. Also, the TGI in the test with RPMI-8226 leukemia, in the test on NCI-H226 lung, in the test with SNB-75 CNS and in the test with NCI-H460 lung was above 100 µM each time.

Source of the values: PubChem BioAssay (NCI).
